# In ChEMBL document CHEMBL1130457, “Design and synthesis of a novel class of thrombin inhibitors incorporating heterocyclic dipeptide surrogates” (Bioorg Med Chem Lett, 1997):
# Legend:
# [1] = target: Serine protease 1 (Homo sapiens, UniProt P07477)
# [2] = target: Plasminogen (Homo sapiens, UniProt P00747)
# [3] = target: Tissue-type plasminogen activator (Homo sapiens, UniProt P00750); assay: Inhibitory concentration required to inhibit human Tissue type plasminogen activator was determined
# [4] = target: Coagulation factor X (Homo sapiens, UniProt P00742)
# [5] = target: Prothrombin (Homo sapiens, UniProt P00734)
# Description: Inhibitory concentration required to inhibit human thrombin enzyme was determined
# Chain of Serine protease 1 (P07477 whole entry): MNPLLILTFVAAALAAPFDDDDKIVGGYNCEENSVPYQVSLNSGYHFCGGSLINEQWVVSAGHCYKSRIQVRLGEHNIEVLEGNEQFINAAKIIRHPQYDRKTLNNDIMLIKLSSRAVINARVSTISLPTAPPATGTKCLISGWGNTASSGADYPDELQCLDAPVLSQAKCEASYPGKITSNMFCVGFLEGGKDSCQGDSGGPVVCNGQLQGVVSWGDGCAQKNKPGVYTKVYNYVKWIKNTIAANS
# Chain of Coagulation factor X (P00742 41-179 limits assumed): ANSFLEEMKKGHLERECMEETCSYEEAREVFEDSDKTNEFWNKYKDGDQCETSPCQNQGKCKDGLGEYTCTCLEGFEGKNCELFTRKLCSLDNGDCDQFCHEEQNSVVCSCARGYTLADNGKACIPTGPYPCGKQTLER
# Chain of Coagulation factor X (P00742 235-488 limits assumed): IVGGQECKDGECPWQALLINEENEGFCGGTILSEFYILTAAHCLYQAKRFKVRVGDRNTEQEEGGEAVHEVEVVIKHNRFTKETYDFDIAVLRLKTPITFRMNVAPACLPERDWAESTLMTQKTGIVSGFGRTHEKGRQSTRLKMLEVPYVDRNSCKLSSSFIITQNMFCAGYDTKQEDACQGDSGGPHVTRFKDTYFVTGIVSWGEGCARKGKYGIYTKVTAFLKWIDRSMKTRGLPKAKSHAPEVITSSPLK
# Chain of Plasminogen (P00747 97-580 limits assumed): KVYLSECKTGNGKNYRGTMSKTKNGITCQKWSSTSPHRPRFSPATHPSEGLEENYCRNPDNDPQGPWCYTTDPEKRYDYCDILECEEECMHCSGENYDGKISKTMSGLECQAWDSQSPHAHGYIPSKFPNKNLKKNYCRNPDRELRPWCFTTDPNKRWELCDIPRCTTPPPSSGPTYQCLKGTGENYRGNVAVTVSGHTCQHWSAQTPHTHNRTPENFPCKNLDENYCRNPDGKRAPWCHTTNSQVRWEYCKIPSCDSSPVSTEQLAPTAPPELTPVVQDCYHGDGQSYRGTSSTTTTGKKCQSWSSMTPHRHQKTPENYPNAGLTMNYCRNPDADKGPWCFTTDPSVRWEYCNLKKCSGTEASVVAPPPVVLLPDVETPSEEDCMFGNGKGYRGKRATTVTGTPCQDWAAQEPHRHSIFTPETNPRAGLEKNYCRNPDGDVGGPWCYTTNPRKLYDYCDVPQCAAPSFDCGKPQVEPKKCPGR
# Chain of Plasminogen (P00747 581-810 limits assumed): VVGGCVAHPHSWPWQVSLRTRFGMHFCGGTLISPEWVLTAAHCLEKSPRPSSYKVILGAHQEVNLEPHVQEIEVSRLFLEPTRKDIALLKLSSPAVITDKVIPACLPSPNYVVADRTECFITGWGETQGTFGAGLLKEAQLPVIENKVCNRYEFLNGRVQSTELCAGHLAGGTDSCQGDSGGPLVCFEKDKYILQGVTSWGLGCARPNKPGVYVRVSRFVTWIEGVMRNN
# Chain of Tissue-type plasminogen activator (P00750 whole entry): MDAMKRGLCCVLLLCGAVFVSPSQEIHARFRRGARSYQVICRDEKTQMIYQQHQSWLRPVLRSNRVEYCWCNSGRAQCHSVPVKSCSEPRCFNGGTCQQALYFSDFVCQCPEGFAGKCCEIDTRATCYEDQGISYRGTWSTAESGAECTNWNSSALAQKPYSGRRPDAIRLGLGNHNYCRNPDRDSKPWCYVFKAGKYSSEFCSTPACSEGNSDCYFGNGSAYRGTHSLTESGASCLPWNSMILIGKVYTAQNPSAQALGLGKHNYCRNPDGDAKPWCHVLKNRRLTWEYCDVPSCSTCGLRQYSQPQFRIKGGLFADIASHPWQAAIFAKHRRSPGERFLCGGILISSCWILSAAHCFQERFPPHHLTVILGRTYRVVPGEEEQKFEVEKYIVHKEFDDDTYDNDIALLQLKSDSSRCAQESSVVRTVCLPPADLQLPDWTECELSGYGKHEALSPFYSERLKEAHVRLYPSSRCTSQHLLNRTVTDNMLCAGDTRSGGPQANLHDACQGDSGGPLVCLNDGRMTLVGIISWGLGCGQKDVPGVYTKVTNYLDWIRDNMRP
SMILES,IC50 [1],IC50 [2],IC50 [3],IC50 [4],IC50 [5]
Cc1ccc(NS(=O)(=O)Cc2ccccc2)c(=O)n1CC(=O)N[C@H]1CCCN(C(=N)N)C1O (stereo not given in full),10.9 nM,> 2500 nM,> 2500 nM,447 nM,0.467 nM
N=C(N)N1CCC[C@H](NC(=O)CN2CCC[C@H](NS(=O)(=O)Cc3ccccc3)C2=O)C1O (stereo not given in full),791 nM,> 2500 nM,> 2500 nM,2500 nM,6.2 nM
Cc1ncc(NS(=O)(=O)Cc2ccccc2)c(=O)n1CC(=O)N[C@H]1CCCN(C(=N)N)C1O (stereo not given in full),160 nM,> 2500 nM,> 2500 nM,905 nM,2.32 nM
Cn1cc(NS(=O)(=O)Cc2ccccc2)c(=O)n(CC(=O)N[C@H]2CCCN(C(=N)N)C2O)c1=O (stereo not given in full),396 nM,> 2500 nM,> 2500 nM,2500 nM,141 nM
N=C(N)N1CCC[C@H](NC(=O)Cn2cccc(NS(=O)(=O)Cc3ccccc3)c2=O)C1O (stereo not given in full),26.2 nM,> 2500 nM,> 2500 nM,20.9 nM,0.505 nM
